Reference: patent US20030100550A1, “Carboxamide diazepin derivatives, preparation method, use as medicines, pharmaceutical compositions and use thereof” (priority 2002, published 2003)

Columns and labels:
Papain = target: T1, Papain (Carica papaya, UniProt P00784); assay: Study of Papain inhibition (fluorescence); format: biochemical; details: enzyme 20 ng/ml, 30 minutes at ambient temperature
T1 construct: purchased Sigma
T1 sequence (P00784 134-345): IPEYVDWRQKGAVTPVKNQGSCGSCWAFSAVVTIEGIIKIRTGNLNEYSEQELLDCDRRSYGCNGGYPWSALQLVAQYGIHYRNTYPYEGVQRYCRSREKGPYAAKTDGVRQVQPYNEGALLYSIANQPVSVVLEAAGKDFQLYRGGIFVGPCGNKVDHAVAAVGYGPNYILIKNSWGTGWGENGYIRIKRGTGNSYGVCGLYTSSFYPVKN
Description: The products to be tested (10 mM) are diluted to […] in DMSO and distributed into Nunc polystyrene 96 well plates at a rate of 2 μl per well. Column 12 of the plate is reserved for the controls and therefore receives […] of DMSO (without products) per well. The plates are stored at −80° C. and thawed on the day of the experiment.
The products are diluted to 50 μM by adding 38 μl of reaction buffer: sodium acetate 100 mM, EDTA 5 mM, DTT […] pH 5.5. The addition as well as all the operations by pipette are carried out with a CybiWell 96 tip pipette. After mixing the solutions, each product is transferred into 2 wells (duplicates) of a Greiner black 384 well plate at a rate of 10 μl per well. Two 96-well plates can therefore be tested in a 384-well plate.
A solution of substrate at 50 μM, Z-Val-arg-AMC (Calbiochem), is prepared in the reaction buffer. The substrate, is then distributed into all the wells of the 384-well plate (20 μl per well).
A solution of Cathepsin K at 12.5 ng/ml is prepared in the reaction buffer and distributed into all the wells of the 384-well plate (20 μl per well) except for the 16 wells serving as 100% inhibition controls (column 23 and 24, lines I to P) which receive 20 μl of enzyme-free buffer.
The plates are then incubated 2H at ambient temperature, then read on Fluoroskan (Labsystems): excitation 390 nm; emission 460 nm
The final concentrations of each of the reagents are: products 10 μM, substrate 20 μM, enzyme 5 ng/ml.
The % inhibition for each of the products is calculated by using points at 0 and 100% inhibition of each plate as references. The products presenting a significant inhibition are then retested on a range of concentrations from 50 to 0.5 μM to determine an IC50.
Study of Papain Inhibition:
Protocol identical to that of Cathepsin K except for:
Papain (Sigma), solution at 50 ng/ml, final concentration 20 ng/ml
Incubation for 30 minutes at ambient temperature

Cathepsin K = target: T2, Cathepsin K (Homo sapiens, UniProt P43235); assay: Study of Cathepsin K inhibition (fluorescence, Z-Val-arg-AMC); format: biochemical; details: for IC50: substrate Z-Val-arg-AMC 20 μM, enzyme 5 ng/ml, 2H at ambient temperature, read-out: Cathepsin K IC50
T2 sequence (P43235 115-329): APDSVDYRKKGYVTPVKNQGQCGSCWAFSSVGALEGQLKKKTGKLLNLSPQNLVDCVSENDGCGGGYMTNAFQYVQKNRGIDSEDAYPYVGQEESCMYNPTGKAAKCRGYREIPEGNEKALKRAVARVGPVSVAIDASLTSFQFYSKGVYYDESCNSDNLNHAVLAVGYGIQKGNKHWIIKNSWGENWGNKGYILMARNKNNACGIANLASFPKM
Summary of the method: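 Recombinant cathepsin K (5 ng/ml final) with 20 μM Z-Val-Arg-AMC in 100 mM sodium acetate, 5 mM EDTA, DTT, pH 5.5; compounds screened at 10 μM in duplicate, 2 h at ambient temperature, fluorescence ex 390/em 460 nm. % inhibition vs plate 0/100% controls; actives retested 50–0.5 μM for IC50.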

Row | SMILES | IC50 (Papain) [µM] | IC50 (Cathepsin K) [µM] | Cathepsin K, percentage in parentheses beside IC50 value (% inhibition) (Cathepsin K; printed beside 20 μM, meaning not explained) [%]
1 | C=CCOC(=O)CC[C@H](NC(=O)[C@@H]1CCCN2C(=O)CC[C@H](NC(=O)Nc3ccc(Oc4ccccc4)cc3)C(=O)N12)C(=O)COC(=O)Cc1ccsc1 [Example 134, (2-propenyl)(4S)6-[1-oxo-2-(thien-3-yl)ethoxy]-4-[[[(1S,9S)-9-[[[(4-phenoxyphenyl)amino]carbonyl]amino]-octahydro-6,10-dioxo-6H-pyridazino[1,2-a][1,2]diazepine-1-yl]carbonyl]amino]-5-oxo-hexanoate] | 7 | 20 | –
2 | O=C(NCCc1cccs1)N[C@H]1CCC(=O)N2CCC[C@@H](C(=O)N[C@@H](Cc3ccccc3)C(=O)CSc3nc4ccccc4s3)N2C1=O [Example 221, 9-[(9S)-[[[2-(thien-2-yl)-ethyl]amino]carbonyl]amino]-N-[(2S)-1-phenyl-4-[(2-benzothiazolyl)thio]-3-oxo-2-butyl]-octahydro-6,10-dioxo-6H-(1S)-pyridazino[1,2-a][1,2]diazepine-1-carboxamide] | 7 | 20 | –
3 | COC(=O)CCCC(=O)OCC(=O)[C@H](Cc1ccccc1)NC(=O)[C@@H]1CCCN2C(=O)CC[C@H](NC(=O)Nc3ccc(Oc4ccccc4)cc3)C(=O)N12 [Example 217] | 7 | 20 | 30
4 | CC(C)[C@H](NC(=O)[C@@H]1CCCN2C(=O)CC[C@H](NC(=O)NCCc3cccs3)C(=O)N12)C(=O)CSc1nnnn1-c1ccccc1 [Example 397, 9-[(9S)-[[[2-(thien-2-yl)-ethyl]amino]carbonyl]amino]-N-[(3S)-1-[(1-phenyl-1H-tetrazol-5-yl)thio]-4-methyl-2-oxo-3-pentyl]-octahydro-6,10-dioxo-6H-(1S)-pyridazino [1,2-a][1,2]diazepine-1-carboxamide] | 18 | 20 | –
5 | CC(C)[C@H](NC(=O)[C@@H]1CCCN2C(=O)CC[C@H](NC(=O)NC3CCCCC3)C(=O)N12)C(=O)CSc1nc2ccccc2s1 [Example 382, 9-[(9S)-[(cyclohexylamino)carbonyl]amino]-N-[(3S)-1-[(benzothiazol-2-yl)thio]-4-methyl-2-oxo-3-pentyl]-octahydro-6,10-dioxo-6H-(1S)-pyridazino[1,2-a][1,2]diazepine-1-carboxamide] | 9 | 20 | –
6 | C=CCOC(=O)CC[C@H](NC(=O)[C@@H]1CCCN2C(=O)CC[C@H](NC(=O)Nc3ccc(Oc4ccccc4)cc3)C(=O)N12)C(=O)CSCc1ccc(OC)cc1 [Example 130, (2-propenyl)(4S)6-[[(4-methoxyphenyl)methyl]thio]-4-[[[(1S,9S)-9-[[[(4-phenoxyphenyl)amino]carbonyl]amino]-octahydro-6,10-dioxo-6H-pyridazino[1,2-a][1,2]diazepine-1-yl]carbonyl]amino]-5-oxo-hexanoate] | 6 | 20 | –
7 | C=CCOC(=O)CC[C@H](NC(=O)[C@@H]1CCCN2C(=O)CC[C@H](NC(=O)Nc3ccc(Oc4ccccc4)cc3)C(=O)N12)C(=O)CSc1nnnn1-c1ccccc1 [Example 128, (2-propenyl)(4S)6-[(1-phenyl-1H-tetrazol-5-yl)thio]-4-[[[(1S,9S)-9-[[[(4-phenoxyphenyl)amino]carbonyl]amino]-octahydro-6,10-dioxo-6H-pyridazino[1,2-a][1,2]diazepine-1-yl]carbonyl]amino]-5-oxo-hexanoate] | 6 | 20 | –
8 | [N-]=[N+]=CC(=O)[C@H](Cc1ccccc1)NC(=O)[C@@H]1CCCN2C(=O)CC[C@H](NS(=O)(=O)c3ccc(-c4ccon4)s3)C(=O)N12 [Example 166, 9-[(9S)-[[5-(isoxazol-3-yl)-2-thienyl]sulphonyl]amino]-N-((2S)-4-diazo-1-phenyl-3-oxo-2-butyl)-octahydro-6,10-dioxo-6H-(1S)-pyridazino[1,2-a][1,2]diazepine-1-carboxamide] | 2 | 20 | –
9 | O=C(NCCc1cccs1)N[C@H]1CCC(=O)N2CCC[C@@H](C(=O)N[C@@H](Cc3ccccc3)C(=O)CSc3nnnn3-c3ccccc3)N2C1=O [Example 220, 9-[(9S)-[[[2-(thien-2-yl)-ethyl]amino]carbonyl]amino]-N-[(2S)-1-phenyl-4-[(1-phenyl-1H-tetrazol-5-yl)thio]-3-oxo-2-butyl]-octahydro-6,10-dioxo-6H-(1S)-pyridazino [1,2-a][1,2]diazepine-1-carboxamide] | 6 | 20 | –
10 | C=CCOC(=O)CC[C@H](NC(=O)[C@@H]1CCCN2C(=O)CC[C@H](NC(=O)Nc3ccc(Oc4ccccc4)cc3)C(=O)N12)C(=O)COC(=O)c1ccncc1 [Example 131, (2-propenyl)(4S)6-[[(4-pyridinyl)carbonyl]oxy]-4-[[[(1S,9S)-9-[[[(4-phenoxyphenyl)amino]carbonyl]amino]-octahydro-6,10-dioxo-6H-pyridazino[1,2-a][1,2]diazepine-1-yl]carbonyl]amino]-5-oxo-hexanoate] | 9 | 7 | –
11 | C[C@H](NC(=O)[C@@H]1CCCN2C(=O)CC[C@H](NC(=O)Nc3ccc(Oc4ccccc4)cc3)C(=O)N12)C(=O)CSc1nc2ccccc2s1 [Example 450, 9-[(9S)-[[(4-phenoxyphenyl)amino]carbonyl]amino]-N-[(2S)-4-[(benzothiazol-2-yl)thio]-3-oxo-2-butyl]-octahydro-6,10-dioxo-6H-(1S)-pyridazino[1,2-a][1,2]diazepine-1-carboxamide] | 18 | 20 | –
12 | O=C(Nc1ccc(Oc2ccccc2)cc1)N[C@H]1CCC(=O)N2CCC[C@@H](C(=O)N[C@@H](Cc3ccccc3)C(=O)CSc3nnnn3-c3ccccc3)N2C1=O [Example 211, 9-[(9S)-[[(4-phenoxyphenyl)amino]carbonyl]amino]-N-[(2S)-1-phenyl-4-[(1-phenyl-1H-tetrazol-5-yl)thio]-3-oxo-2-butyl]-octahydro-6,10-dioxo-6H-(1S)-pyridazino[1,2-a][1,2]diazepine-1-carboxamide] | 6 | 20 | –
13 | CC(C)[C@H](NC(=O)[C@@H]1CCCN2C(=O)CC[C@H](NC(=O)c3ccco3)C(=O)N12)C(=O)CSc1nc2ccccc2s1 [Example 374, 9-[(9S)-[(2-furanyl)carbonyl]amino]-N-[(3S)-1-[(benzothiazol-2-yl)thio]-4-methyl-2-oxo-3-pentyl]-octahydro-6,10-dioxo-6H-(1S)-pyridazino[1,2-a][1,2]diazepine-1-carboxamide] | 7 | 20 | –
14 | COc1cccc(C(=O)N[C@H]2CCC(=O)N3CCC[C@@H](C(=O)N[C@H](C(=O)CSc4nc5ccccc5s4)C(C)C)N3C2=O)c1 [Example 366, 9-[(9S)-(3-methoxybenzoyl)amino]-N-[(3S)-1-[(benzothiazol-2-yl)thio]-4-methyl-2-oxo-3-pentyl]-octahydro-6,10-dioxo-6H-(1S)-pyridazino[1,2-a][1,2]diazepine-1-carboxamide] | 17 | – | –
15 | O=C(CSc1nc2ccccc2s1)[C@H](Cc1ccccc1)NC(=O)[C@@H]1CCCN2C(=O)CC[C@H](NS(=O)(=O)c3ccc(C(F)(F)F)cc3)C(=O)N12 [Example 241, 9-[(9S)-[[[4-(trifluoromethyl)phenyl]sulphonyl]amino]-N-[(2S)-1-phenyl-4-(2-benzothiazolyl)thio]-3-oxo-2-butyl]-octahydro-6,10-dioxo-6H-(1S)-pyridazino[1,2-a][1,2]diazepine-1-carboxamide] | 7 | – | –
